ChEMBL document CHEMBL1201862, “PubChem BioAssay data set” (2004)
The source made the active and inactive calls.

Tests used:
[1] = target: T1, Rac GTPase-activating protein 1 (Homo sapiens, UniProt Q9H0H5); test: MgcRacGAP GTPase-activating activity inhibitors, confirmation, biochemical, ADP Hunter fluorescence, primary and confirmatory (AID 624330); type: functional
T1 sequence (Q9H0H5 whole entry): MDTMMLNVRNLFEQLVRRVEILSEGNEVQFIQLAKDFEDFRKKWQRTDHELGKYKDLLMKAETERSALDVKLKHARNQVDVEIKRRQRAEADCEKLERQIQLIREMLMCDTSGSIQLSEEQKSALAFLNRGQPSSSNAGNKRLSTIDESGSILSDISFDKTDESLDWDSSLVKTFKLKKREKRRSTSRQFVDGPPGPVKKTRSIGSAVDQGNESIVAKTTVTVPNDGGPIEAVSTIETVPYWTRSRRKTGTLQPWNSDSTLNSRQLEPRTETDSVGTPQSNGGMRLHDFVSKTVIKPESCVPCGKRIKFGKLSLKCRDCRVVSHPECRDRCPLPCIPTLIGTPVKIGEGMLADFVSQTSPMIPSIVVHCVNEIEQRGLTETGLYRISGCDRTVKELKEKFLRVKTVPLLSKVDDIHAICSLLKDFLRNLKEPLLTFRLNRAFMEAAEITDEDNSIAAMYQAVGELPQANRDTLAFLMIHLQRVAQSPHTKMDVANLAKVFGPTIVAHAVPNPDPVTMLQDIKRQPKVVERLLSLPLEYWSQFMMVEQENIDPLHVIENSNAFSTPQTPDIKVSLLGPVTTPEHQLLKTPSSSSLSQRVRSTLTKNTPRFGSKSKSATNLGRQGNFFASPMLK

[2] = HeLa cell cytotoxicity, dose response, cytotoxicity control for MgcRacGAP inhibitor project (AID 624300); type: functional
[3] = target: T2, DNA repair and recombination protein RAD54-like (Homo sapiens, UniProt Q92698); test: inhibitors of human RAD54 branch migration, confirmation, biochemical, fluorescence, cherry-picked samples, dose series (AID 651657); type: functional
T2 sequence (Q92698 whole entry): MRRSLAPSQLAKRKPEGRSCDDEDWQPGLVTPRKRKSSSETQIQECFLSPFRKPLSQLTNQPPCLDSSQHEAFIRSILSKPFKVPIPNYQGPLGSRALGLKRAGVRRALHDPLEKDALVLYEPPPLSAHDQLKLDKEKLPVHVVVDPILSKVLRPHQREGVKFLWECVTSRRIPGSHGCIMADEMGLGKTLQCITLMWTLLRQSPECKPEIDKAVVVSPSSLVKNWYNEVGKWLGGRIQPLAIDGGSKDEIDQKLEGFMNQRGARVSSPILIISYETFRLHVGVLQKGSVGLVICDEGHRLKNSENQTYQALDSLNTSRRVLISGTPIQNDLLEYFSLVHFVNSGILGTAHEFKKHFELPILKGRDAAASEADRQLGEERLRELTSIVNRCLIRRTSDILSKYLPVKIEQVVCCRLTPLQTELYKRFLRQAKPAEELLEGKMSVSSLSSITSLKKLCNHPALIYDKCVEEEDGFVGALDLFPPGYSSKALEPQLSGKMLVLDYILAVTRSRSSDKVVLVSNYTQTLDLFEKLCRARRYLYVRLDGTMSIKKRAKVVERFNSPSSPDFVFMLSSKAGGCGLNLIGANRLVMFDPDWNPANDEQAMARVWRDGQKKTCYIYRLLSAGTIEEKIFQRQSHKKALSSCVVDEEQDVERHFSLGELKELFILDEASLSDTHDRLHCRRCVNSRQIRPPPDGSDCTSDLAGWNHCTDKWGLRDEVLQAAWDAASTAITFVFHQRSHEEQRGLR

[4] = target: T3, Aminopeptidase N (Plasmodium falciparum FcB1/Columbia, UniProt O96935); test: P. falciparum M1AAP inhibitors, biochemical, fluorogenic H-Leu-NHMec substrate, 1536-well (AID 1445); parameters: species or system Plasmodium falciparum 3D7, 3D7
T3 sequence (O96935 whole entry): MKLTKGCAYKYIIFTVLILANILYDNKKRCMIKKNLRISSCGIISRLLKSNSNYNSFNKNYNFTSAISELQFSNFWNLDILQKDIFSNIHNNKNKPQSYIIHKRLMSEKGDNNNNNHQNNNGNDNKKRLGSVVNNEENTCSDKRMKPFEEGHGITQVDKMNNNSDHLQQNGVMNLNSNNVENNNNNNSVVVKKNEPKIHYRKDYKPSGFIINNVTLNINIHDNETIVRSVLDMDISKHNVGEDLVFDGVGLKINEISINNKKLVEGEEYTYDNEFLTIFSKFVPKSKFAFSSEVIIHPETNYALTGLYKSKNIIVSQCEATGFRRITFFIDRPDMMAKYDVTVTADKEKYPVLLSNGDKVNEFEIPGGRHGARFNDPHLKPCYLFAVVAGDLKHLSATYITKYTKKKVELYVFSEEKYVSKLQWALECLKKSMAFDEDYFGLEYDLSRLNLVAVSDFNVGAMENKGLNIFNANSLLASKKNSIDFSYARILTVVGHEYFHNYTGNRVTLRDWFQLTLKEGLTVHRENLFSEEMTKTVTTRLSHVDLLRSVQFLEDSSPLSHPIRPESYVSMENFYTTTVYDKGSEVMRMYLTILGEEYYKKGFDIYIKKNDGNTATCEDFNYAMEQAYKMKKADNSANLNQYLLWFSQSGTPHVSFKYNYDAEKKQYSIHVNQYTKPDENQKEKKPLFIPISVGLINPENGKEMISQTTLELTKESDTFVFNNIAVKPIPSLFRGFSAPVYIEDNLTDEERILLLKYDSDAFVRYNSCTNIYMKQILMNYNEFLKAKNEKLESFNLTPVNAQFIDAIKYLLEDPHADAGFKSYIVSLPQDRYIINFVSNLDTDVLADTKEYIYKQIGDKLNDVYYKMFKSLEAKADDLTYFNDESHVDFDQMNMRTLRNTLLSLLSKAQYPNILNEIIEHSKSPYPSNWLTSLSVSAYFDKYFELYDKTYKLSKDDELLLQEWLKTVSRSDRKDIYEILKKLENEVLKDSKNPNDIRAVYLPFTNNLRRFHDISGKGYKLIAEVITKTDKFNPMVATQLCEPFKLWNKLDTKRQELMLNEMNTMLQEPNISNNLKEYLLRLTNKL

[5] = target: DNA dC->dU-editing enzyme APOBEC-3G (Homo sapiens, UniProt Q9HC16); test: Dose Response confirmation of small molecule APOBEC3G DNA Deaminase Inhibitors via a fluorescence-based single-stranded DNA deaminase assay. [Related pubchem assays (depositor defined):AID493012, AID493028]; type: functional
[6] = target: DNA dC->dU-editing enzyme APOBEC-3A (Homo sapiens, UniProt P31941); test: APOBEC3A DNA deaminase inhibitors, dose response, biochemical (AID 504722); type: functional
[7] = inhibitors of Vif binding to APOBEC3G peptide, primary screen, biochemical, TR-FRET, GST-Vif 1-94, biotin-A3G peptide, dose response retest (AID 1117319); type: functional;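 note: TR-FRET signal of purified GST-Vif binding a biotinylated A3G peptide; inhibitors lower the FRET signal by blocking Vif and A3G binding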
[8] = target: T4, Zinc finger protein mex-5 (Caenorhabditis elegans, UniProt Q9XUB2); test: MEX-5/TCR-2 RNA interaction inhibitors, dose response, biochemical, C. elegans, fluorescence polarization (AID 1960)
T4 sequence (Q9XUB2 whole entry): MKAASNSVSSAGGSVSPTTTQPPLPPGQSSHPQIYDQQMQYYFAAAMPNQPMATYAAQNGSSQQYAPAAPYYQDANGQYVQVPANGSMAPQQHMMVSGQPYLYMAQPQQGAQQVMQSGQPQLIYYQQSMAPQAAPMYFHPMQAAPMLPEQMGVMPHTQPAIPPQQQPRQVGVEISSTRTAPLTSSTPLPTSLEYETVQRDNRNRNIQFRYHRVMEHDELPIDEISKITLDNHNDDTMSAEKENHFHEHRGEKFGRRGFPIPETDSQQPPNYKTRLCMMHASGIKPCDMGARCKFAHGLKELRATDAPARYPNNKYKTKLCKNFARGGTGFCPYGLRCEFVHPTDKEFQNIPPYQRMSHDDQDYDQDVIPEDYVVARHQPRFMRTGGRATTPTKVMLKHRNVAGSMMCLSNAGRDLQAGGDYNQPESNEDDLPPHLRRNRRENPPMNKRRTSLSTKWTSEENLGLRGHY

[9] = target: T5, RNA-binding protein pos-1 (Caenorhabditis elegans, UniProt G5EF15); test: inhibitors of POS-1/mex-3 RNA binding, dose response, biochemical, fluorescence polarization (AID 1964);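 note: purified POS-1 fused to maltose binding protein made in E. coli; potency of compounds blocking POS-1 binding to fluorescent RNA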
T5 sequence (G5EF15 whole entry): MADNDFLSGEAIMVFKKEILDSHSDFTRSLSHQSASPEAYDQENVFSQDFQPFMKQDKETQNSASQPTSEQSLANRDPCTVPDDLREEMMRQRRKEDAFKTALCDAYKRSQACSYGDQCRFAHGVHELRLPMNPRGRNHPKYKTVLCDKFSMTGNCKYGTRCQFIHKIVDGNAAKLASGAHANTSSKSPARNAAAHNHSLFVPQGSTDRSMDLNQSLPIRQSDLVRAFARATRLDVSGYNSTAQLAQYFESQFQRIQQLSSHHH

[10] = HEK293 cell cytotoxicity, dose response, cytotoxicity control, plate reader, cherry-picked samples (AID 743446); type: functional, cell-based
[11] = HepG2 cell cytotoxicity, dose response, cytotoxicity control, plate reader, cherry-pick, antagonist series (AID 743416); type: functional, cell-based
[12] = MC4R antagonists, dose response, counter-screen for LGR2 antagonist project, cell-based, plate reader, cherry pick (AID 743444); type: functional;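 note: transfected HEK 293 cells stimulated with alpha-MSH peptide; potency of inhibitors of the alpha-MSH evoked signal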
[13] = A549 cell cytotoxicity, dose response, cytotoxicity control, plate reader, cherry-pick, antagonist series (AID 743412); type: functional, cell-based
[14] = LGR2 antagonists, dose response, cell-based, HEK293, CRE-luciferase reporter, cherry pick, set 2 (AID 743343); type: functional;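 note: transfected cells were stimulated with diluted bursicon conditioned medium after compound addition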
[15] = target: G-protein coupled receptor 55 (Homo sapiens, UniProt Q9Y2T6); test: GPR55 agonists via beta-arrestin recruitment, primary screen, imaging, U2OS cells, beta-arrestin-GFP redistribution (AID 1961); type: functional
[16] = Luminescence Cell-Based Dose Response HTS to Identify Activators of Luciferase Translation or Activity in H4 […] Cells. [Related pubchem assays: 1829 (Project Summary), 1814 (Primary HTS)]; type: functional
[17] = test system: H4; test: Luminescence Cell-Based Dose Response HTS to Identify Activators of 5'UTR Stem-Loop Driven Prion Protein mRNA Translation in H4 Neuroglioblastoma Cells. [Related pubchem assays: 1829 (Project Summary), 1814 (Primary HTS)]; type: functional; conditions: Homo sapiens
[18] = Luminescence Cell-Based Dose Confirmation HTS to Identify Activators of 5'UTR Stem-Loop Driven Alpha-Synuclein mRNA Translation in H4 Neuroglioblastoma Cells. [Related pubchem assays: 1829 (Project Summary), 1814 (Primary HTS)]; type: functional
[19] = P. falciparum Dd2 growth inhibitors, dose response, SYBR Green, cherry-picked samples (AID 1159567); type: functional, cell-based
[20] = HepG2 cell cytotoxicity, dose response, cytotoxicity control, cherry-picked samples (AID 1159577); type: functional, cell-based

Chain of DNA dC->dU-editing enzyme APOBEC-3G (Q9HC16 whole entry): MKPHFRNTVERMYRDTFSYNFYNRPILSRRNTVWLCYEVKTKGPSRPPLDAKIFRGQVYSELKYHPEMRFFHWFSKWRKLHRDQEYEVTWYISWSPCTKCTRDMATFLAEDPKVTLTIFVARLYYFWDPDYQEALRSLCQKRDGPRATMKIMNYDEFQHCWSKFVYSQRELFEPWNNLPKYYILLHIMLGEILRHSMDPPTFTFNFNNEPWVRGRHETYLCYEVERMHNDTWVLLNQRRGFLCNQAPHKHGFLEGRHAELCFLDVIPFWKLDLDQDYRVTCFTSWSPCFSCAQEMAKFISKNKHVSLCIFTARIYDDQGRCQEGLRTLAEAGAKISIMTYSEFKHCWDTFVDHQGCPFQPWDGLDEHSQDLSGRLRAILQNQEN
Chain of DNA dC->dU-editing enzyme APOBEC-3A (P31941 whole entry): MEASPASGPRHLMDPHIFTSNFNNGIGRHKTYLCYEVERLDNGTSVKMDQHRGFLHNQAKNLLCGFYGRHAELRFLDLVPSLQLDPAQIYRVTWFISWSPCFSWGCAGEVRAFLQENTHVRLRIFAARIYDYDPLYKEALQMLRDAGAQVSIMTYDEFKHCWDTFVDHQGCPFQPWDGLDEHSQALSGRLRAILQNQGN
Chain of G-protein coupled receptor 55 (Q9Y2T6 whole entry): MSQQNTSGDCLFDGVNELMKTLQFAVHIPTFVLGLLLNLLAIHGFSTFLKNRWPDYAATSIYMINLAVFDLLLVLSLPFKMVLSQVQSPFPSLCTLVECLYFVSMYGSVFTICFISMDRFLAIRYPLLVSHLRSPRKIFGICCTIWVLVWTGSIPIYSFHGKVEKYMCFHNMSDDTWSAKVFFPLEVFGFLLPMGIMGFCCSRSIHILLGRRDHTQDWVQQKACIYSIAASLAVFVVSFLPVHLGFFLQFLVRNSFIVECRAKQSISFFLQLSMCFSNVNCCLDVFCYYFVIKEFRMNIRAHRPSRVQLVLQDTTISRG

Clc1ccc(OCCOCCNCc2ccccc2)cc1Cl
IC50 [1]: 149 µM (active) | CC50 [2]: 91.9 µM (active)

OC1CCCN(Cc2c3ccccc3cc3ccccc23)C1 (stereo not given)
AC50 [3]: 4.09 µM (active)

COc1cc2nc3c(O)n(CCN4CCCCC4)cnc-3c2cc1OC
AC50 [3]: 36.3 µM (active)

CCCCc1cc(=O)oc2c(CN(C)C)c(O)ccc12
IC50 [4]: 30.2 µM (active)

Cc1cc(-c2nnc(S)n2-c2ccc(C)c(C)c2)no1
IC50 [5]: 8.07 µM (active) | IC50 [6]: > 100 µM (inactive)

CC(C)C(NC(N)=O)C(=O)NC1CCCCC1 (stereo not given)
IC50 [7]: > 100 µM (active)

Cn1c(C(=O)NCCCN2CCOCC2)cc2c(=O)n(C)c3ccccc3c21
EC50 [8]: > 300 µM (not active) | EC50 [9]: > 300 µM (not active) | AC50 [3]: 26.1 µM (active)

C=CCn1c(=O)c2ccccc2n2c(S)nnc12
IC50 [5]: 2.61 µM (active) | IC50 [6]: > 100 µM (inactive)

Cc1[nH]c(=S)c(C#N)c2c1CCCC2
IC50 [5]: 5.25 µM (active) | IC50 [6]: > 100 µM (inactive)

COc1ccc2oc(C(=O)N3CCc4ccccc43)c(C)c2c1
AC50 [10]: 33.9 µM (active) | AC50 [11]: 21.5 µM (active) | AC50 [12]: 6.24 µM (active) | AC50 [13]: 20 µM (active) | AC50 [14]: 7.5 µM (active)

O=C(CSc1nc2c(c(=O)n1-c1ccc(Cl)cc1)SCC2)NCC1CCCO1 (stereo not given)
IC50 [4]: 58.3 µM (active)

COCCCn1c(=N)c(C(=O)NCC2CCCO2)cc2c(=O)n3ccccc3nc21 (stereo not given)
IC50 [4]: 60.2 µM (active)

CN(C)CCCN(C(=O)c1cc(Cl)sc1Cl)c1nc2cc3c(cc2s1)OCO3
EC50 [15]: > 32 µM (inactive)

Cc1cc(C)n2nc(C(=O)NNC(=O)c3ccc(Cl)cc3)nc2n1
IC50 [4]: 15.9 µM (active) | EC50 [16]: 12.7 µM (active) | EC50 [17]: > 120 µM (not active) | EC50 [18]: > 120 µM (not active)

COCCN(Cc1cc2ccccc2nc1O)C(=O)c1ccccc1OC
IC50 [7]: > 100 µM (active)

COc1ccc(CCN2C(=O)c3cccc4c(C(=O)N5CCCCC5)ccc(c34)C2=O)cc1OC
AC50 [10]: 16.7 µM (active) | AC50 [11]: > 52 µM (inactive) | AC50 [12]: 18 µM (active) | AC50 [13]: > 52 µM (inactive) | AC50 [14]: 21.6 µM (active)

Cc1cc(C)c2sc(N(CCN(C)C)C(=O)c3cc(Cl)sc3Cl)nc2c1
EC50 [15]: 26.2 µM (inactive)

O=S(=O)(c1ccccc1F)N1C[C@@H]2N[C@H](C1)[C@H]2c1ccc(/C=C/c2ccccc2)cc1
AC50 [19]: 3.4 µM (active) | AC50 [20]: 16.1 µM (active)

N#C[C@@H]1[C@H](c2ccccc2-c2cccc(F)c2)[C@H](CO)N1C(=O)NC1CCCC1
AC50 [19]: 6.42 µM (active) | AC50 [20]: > 39 µM (inactive)

C[C@@H]1CN([C@@H](C)CO)S(=O)(=O)c2ccc(/C=C/c3ccccc3)cc2O[C@H]1CN(C)Cc1cncnc1
AC50 [19]: 5.17 µM (active) | AC50 [20]: > 39 µM (inactive)
